Measured values taken from ChEMBL document CHEMBL1145312, “Structure-activity relationships of triazolopyridine oxazole p38 inhibitors: identification of candidates for clinical development” (Bioorg Med Chem Lett, 2006).
Converted amounts (≈) assume the structure as drawn.

What was measured:
[1] = target: Mitogen-activated protein kinase 14 (Homo sapiens, UniProt Q16539); assay: Inhibition of p38alpha
Monocyte = assay: Inhibition of LPS-induced TNFalpha production in human monocytes; type: functional, cell-based
[2] = Hepatocyte extraction ratio in human; type: ADME, cell-based; conditions: hepatocytes
[3] = Permeability from apical to basolateral side of Caco-2 cell membrane; type: ADME, cell-based; conditions: human
[4] = Permeability from basolateral to apical side of Caco-2 cell membrane; type: ADME, cell-based; conditions: human
Homo sapiens = organism: Homo sapiens; assay: Inhibition of LPS-induced TNFalpha production in human whole blood; type: functional, organism-based
[5] = Hepatocyte microsomal extraction ratio in human; conditions: hepatic microsomes
[6] = Volume of distribution in monkey; type: ADME, organism-based, Macaca mulatta; conditions: rhesus monkey, in vivo; read-out: Vdss
[7] = Plasma clearance in monkey; type: ADME, organism-based, Macaca mulatta; conditions: rhesus monkey
[8] = Half life in monkey; type: ADME, organism-based, Macaca mulatta; conditions: rhesus monkey, in vivo
[9] = Bioavailability in rat; type: ADME, organism-based; conditions: in vivo
[10] = Plasma clearance in rat; type: ADME, organism-based
[11] = Solubility in PBS buffer at ph 6.5; type: physicochemical
Rattus norvegicus = organism: Rattus norvegicus; assay: Inhibition of LPS-induced TNFalpha release in rat; type: functional
[12] = Bioavailability in monkey; type: ADME, organism-based, Macaca mulatta; conditions: rhesus monkey, in vivo
[13] = Half life in rat; type: ADME, organism-based; conditions: in vivo
[14] = Volume of distribution in rat; type: ADME, organism-based; conditions: in vivo, read-out: Vdss

Mitogen-activated protein kinase 14, sequence (Q16539 whole entry): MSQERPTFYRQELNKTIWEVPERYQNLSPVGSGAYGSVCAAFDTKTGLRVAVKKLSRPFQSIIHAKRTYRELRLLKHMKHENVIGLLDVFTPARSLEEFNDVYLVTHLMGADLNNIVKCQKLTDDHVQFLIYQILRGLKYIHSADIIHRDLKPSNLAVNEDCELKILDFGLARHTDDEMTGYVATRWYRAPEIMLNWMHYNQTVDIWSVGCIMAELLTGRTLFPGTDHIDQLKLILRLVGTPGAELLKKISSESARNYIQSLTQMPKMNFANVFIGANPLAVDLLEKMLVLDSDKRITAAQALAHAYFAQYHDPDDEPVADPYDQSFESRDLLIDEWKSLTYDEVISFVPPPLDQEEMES

IC50 [1] [nM] | IC50 (Monocyte) [nM] | hepatic extraction ratio [2] | IC50 (Homo sapiens) [nM] | hepatic extraction ratio [5] | Compound | further results
9.2 | 80 | > 0.5 | – | – | CCN(C)c1nnc2ccc(-c3ocnc3-c3ccccc3)cn12 | –
6.2 | 24.5 | – | 297 | – | CC(C)c1nnc2ccc(-c3[nH]cnc3-c3cc(F)ccc3F)cn12 | Papp A→B [3]: 1 ×10⁻⁶ cm/s; Papp B→A [4]: 32 ×10⁻⁶ cm/s
3.5 | 38.7 | – | 470 | < 0.3 | CC(C)(C)c1nnc2ccc(-c3ocnc3-c3ccc(F)cc3)cn12 | –
47.2 | 150 | > 0.5 | – | – | c1ccc(-c2ncoc2-c2ccc3nnc(C4CC4)n3c2)cc1 | –
5.4 | 40 | > 0.5 | 1710 | – | CCNc1nnc2ccc(-c3ocnc3-c3ccccc3)cn12 | –
4.3 | 10 | > 0.5 | – | – | Cc1ccc(F)c(-c2ncoc2-c2ccc3nnc(C(C)C)n3c2)c1 | –
14 | 40 | > 0.5 | – | – | CC1(c2nnc3ccc(-c4ocnc4-c4ccc(F)cc4)cn23)CCC1 | –
0.4 | 10 | > 0.5 | 697 | – | CCOc1ccccc1-c1nnc2ccc(-c3ocnc3-c3ccc(F)cc3)cn12 | –
37.8 | 135 | > 0.5 | – | – | CC(C)c1nnc2ccc(-c3ocnc3-c3cccc(F)c3)cn12 | –
12.3 | 90 | > 0.5 | 5350 | – | Fc1ccc(-c2ncoc2-c2ccc3nnc(-c4ccccc4)n3c2)cc1 | –
4.1 | 480 | – | – | < 0.3 | CC(C)c1nnc2ccc(-c3ocnc3-c3cc(F)c(F)c(F)c3)cn12 | –
10.9 | 186 | > 0.5 | 4650 | – | Fc1ccc(-c2ncoc2-c2ccc3nnc(C4CC4)n3c2)cc1 | –
12.4 | 47.2 | – | 631 | – | CC(C)c1nnc2ccc(-c3ocnc3-c3ccc(F)c(Cl)c3)cn12 | Vd [6]: 1.4 L/kg; clearance [7]: 5.7 mL/min/kg; half-life [8]: 4.7 h; bioavailability [9]: 9.4%; clearance [10]: 17 mL/min/kg; solubility [11]: 2.8 µg/mL (≈ 7.85 µM); ED50 (Rattus norvegicus): 0.5 mg/kg; bioavailability [12]: 31%; half-life [13]: 0.9 h; Vd [14]: 1.3 L/kg
2.2 | 20 | > 0.5 | 600 | < 0.3 | CC(C)c1nnc2ccc(-c3ocnc3-c3ccc(Cl)cc3F)cn12 | –
2.3 | 28.3 | – | 263 | < 0.3 | CC1(c2nnc3ccc(-c4ocnc4-c4cc(F)c(F)cc4F)cn23)CC1 | –
15.4 | 52 | > 0.5 | 935 | – | Fc1ccc(-c2ncoc2-c2ccc3nnc(N4CCCC4)n3c2)cc1 | –
6.6 | 11.6 | > 0.5 | 260 | – | Cc1cc(-c2ncoc2-c2ccc3nnc(C(C)C)n3c2)ccc1F | –
24 | 31.6 | – | 1400 | < 0.3 | Fc1ccc(F)c(-c2ncoc2-c2ccc3nnc(C4CC4)n3c2)c1 | –
4.6 | 10 | > 0.5 | 265 | – | CC(C)c1nnc2ccc(-c3ocnc3-c3ccc(F)cc3F)cn12 | –
83.2 | 915 | > 0.5 | – | – | FC(F)(F)Cc1nnc2ccc(-c3ocnc3-c3ccccc3)cn12 | –
7.8 | 40 | – | 565 | < 0.3 | Fc1cc(F)c(-c2ncoc2-c2ccc3nnc(C4CC4)n3c2)cc1F | –
19.5 | > 5000 | – | – | < 0.3 | Fc1ccc(-c2ncoc2-c2ccc3nncn3c2)cc1 | –
8.8 | 14.1 | – | 220 | < 0.3 | CC(C)(C)c1nnc2ccc(-c3ocnc3-c3cc(F)ccc3F)cn12 | –
14.5 | 57.4 | – | – | < 0.3 | CC(C)c1nnc2ccc(-c3ocnc3-c3cccc(Cl)c3Cl)cn12 | –
5.6 | 54.8 | – | – | < 0.3 | CC(C)c1nnc2ccc(-c3ocnc3-c3cc(F)c(F)cc3Cl)cn12 | –

Compound | IC50 [1] [nM] | IC50 (Monocyte) [nM] | hepatic extraction ratio [2] | IC50 (Homo sapiens) [nM] | hepatic extraction ratio [5] | further results
CC1(c2nnc3ccc(-c4ocnc4-c4ccc(F)cc4F)cn23)CC1 | 0.7 | 30 | > 0.5 | 245 | – | –
CCc1nnc2ccc(-c3ocnc3-c3ccccc3)cn12 | 54.5 | 672 | > 0.5 | – | – | –
CC(C)c1nnc2ccc(-c3cnoc3-c3cc(F)ccc3F)cn12 | 33.2 | 63 | – | – | – | Papp A→B [3]: 41 ×10⁻⁶ cm/s; Papp B→A [4]: 29 ×10⁻⁶ cm/s
CC1(c2nnc3ccc(-c4ocnc4-c4cc(F)ccc4F)cn23)CC1 | 3 | 45.8 | – | 385 | < 0.3 | –
Fc1ccc(-c2ncoc2-c2ccc3nnc(C4CCC4)n3c2)c(F)c1 | 3.75 | 40 | > 0.5 | – | – | –
CC(C)c1nnc2ccc(-c3ocnc3-c3c(F)cc(F)cc3F)cn12 | 7.2 | 60 | – | 650 | < 0.3 | –
Fc1ccc(-c2ncoc2-c2ccc3nnc(C4CCC4)n3c2)cc1 | 17.7 | 49 | > 0.5 | – | – | –
CN(C)c1nnc2ccc(-c3ocnc3-c3ccc(F)cc3)cn12 | 15.3 | 165 | > 0.5 | – | – | –
